In patent US12628827B2, “Isoxazoline compounds and their use as pest control agents” (PI INDUSTRIES LIMITED, priority 2020, dated 2026) one finds mortality data, which are given here for 13 compounds.

Common to all, as to format: in vivo
Assay [1] relates to Plutella xylostella. Kind of assay: Plutella xylostella leaf dip method. The conditions noted are these: foliar, cabbage leaves, second instar larvae, 72 h after release, dead + moribund vs untreated control, read-out: per cent mortality. Here is the method: The leaf dip method was used for testing, wherein the required quantity of the compound was weighed and dissolved in a tube containing solvent solution. The tube was put on a vortex at 2000 rpm for 90 min for proper mixing, then, diluted with a 0.01% Triton-X solution to the desired test concentration. Cabbage leaves were dipped in the compound solution for 10 seconds, shade dried for 20 min and then transferred into the cells of bioassay trays. A single second instar larva was released into each cell and the tray was covered with a lid. The bio-assay trays were then kept under laboratory conditions at a temperature of 25° C. and a relative humidity of 70%. Observations on dead, moribund and alive larvae were recorded 72 h after the release. Percent mortality was calculated by combining dead and moribund larvae and comparing the result to the one of the untreated control. The compounds, […]

Assay [2] has as its system Tetranychus urticae. Kind of assay: Tetranychus urticae leaf dip method. As to conditions: foliar, French bean leaves, third instar nymphs, 72 h after release, dead + moribund vs untreated control, read-out: percent mortality. Here is the method: (§1) The leaf dip method was used for testing, wherein the required quantity of the compound was weighed and dissolved in a tube containing solvent solution. The tube was put on a vortex at 2000 rpm for 90 min for proper mixing, then, diluted with 0.01% Triton-X solution to the desired test concentration. French bean leaves were dipped in the compound solution for 10 seconds, shade dried for 20 min and then placed, with the abaxial side of the leaf up, in single cells of a bio-assay tray containing 4 mL of a solidified 1% agar-agar solution. Known numbers of third instar nymphs were released into the cell with the treated leaf and the cell was covered with a perforated lid for better aeration. The trays were kept in a plant growth chamber at a temperature of 25° C. and a relative humidity of 70%. Observations on dead, moribund and alive nymphs were recorded 72 h after the release. Percent mortality was calculated by combining dead and moribund nymphs and comparing the result with the one of the untreated control. The compounds 1 2 26 38 40 46 47 48 and 49 recorded ≥70 percent mortality @ 300 PPM.

The subject of assay [3] is Amrasca biguttulla biguttulla. The experiment in a line: Amrasca biguttulla biguttulla leaf dip method. The conditions noted are these: Solanum melongena, foliar, brinjal leaves, second instar nymphs, 72 h after release, dead + moribund vs untreated control, read-out: percent mortality. On the procedure:
as §1, with “concentration. Brinjal” for “concentration. French bean”, “of second” for “of third”, “compounds 1,” for “compounds 1”, “2 and” for “2 26 38”, “40” for “40 46 47 48 and 49”

The test system of assay [4] is Scirtothrips dorsalis. Kind of assay: Scirtothrips dorsalis leaf dip method. The conditions noted are these: foliar, capsicum leaves, second instar nymphs, 72 h after release, dead + moribund vs untreated control, read-out: percent mortality. On the procedure:
as §1, with “concentration. Capsicum” for “concentration. French bean”, “of second” for “of third”, “compounds 1,” for “compounds 1”, “2 and” for “2 26 38”, “40” for “40 46 47 48 and 49”

For the compound `Cc1cc(C2=NOC(c3cc(Cl)cc(Cl)c3)(C(F)(F)F)C2)ccc1C(=O)N(CC(F)F)c1nc(CCC(F)(F)F)n(CC(F)F)n1` (stereo not shown) [Compound 87, 4-(5-(3,5-dichlorophenyl)-5-(trifluoromethyl)-4,5-dihydroisoxazol-3-yl)-N-(2,2-difluoroethyl)-N-(1-(2,2-difluoroethyl)-5-(3,3,3-trifluoropropyl)-1H-1,2,4-triazol-3-yl)-2-methylbenzamide], the mortality at 300 ppm in assay [1] was not below 70%. On to `CCc1nc(NC(=O)c2ccc(C3=NOC(c4cc(Cl)cc(Cl)c4)(C(F)(F)F)C3)cc2C)nn1CC` (stereo not shown) [Compound 38, 4-(5-(3,5-dichlorophenyl)-5-(trifluoromethyl)-4,5-dihydroisoxazol-3-yl)-N-(1,5-diethyl-1H-1,2,4-triazol-3-yl)-2-methylbenzamide], for which the mortality at 300 ppm in assay [2] was not below 70%. Turning to `Cc1cc(C2=NOC(c3cc(Cl)cc(Cl)c3)(C(F)(F)F)C2)ccc1C(=O)N(C)c1nc(C(C)(F)F)n(C)n1` (stereo not shown) [Compound 49, 4-(5-(3,5-dichlorophenyl)-5-(trifluoromethyl)-4,5-dihydroisoxazol-3-yl)-N-(5-(1,1-difluoroethyl)-1-methyl-1H-1,2,4-triazol-3-yl)-N,2-dimethylbenzamide], in assay [2], the mortality at 300 ppm was not below 70%. For `Cc1cc(C2=NOC(c3cc(Cl)c(F)c(Cl)c3)(C(F)(F)F)C2)ccc1C(=O)Nc1nc(C(C)C)n(C)n1` (stereo not shown) [Compound 26, 4-(5-(3,5-dichloro-4-fluorophenyl)-5-(trifluoromethyl)-4,5-dihydroisoxazol-3-yl)-N-(5-isopropyl-1-methyl-1H-1,2,4-triazol-3-yl)-2-methylbenzamide], the mortality at 300 ppm in assay [2] was not below 70%.

For the compound `Cc1cc(C2=NOC(c3cc(Cl)cc(Cl)c3)(C(F)(F)F)C2)ccc1C(=O)Nc1nc(C(C)(F)F)n(C)n1` (stereo not shown) [Compound 48, 4-(5-(3,5-dichlorophenyl)-5-(trifluoromethyl)-4,5-dihydroisoxazol-3-yl)-N-(5-(1,1-difluoroethyl)-1-methyl-1H-1,2,4-triazol-3-yl)-2-methylbenzamide], the mortality at 300 ppm in assay [2] was not below 70%. `Cc1cc(C2=NOC(c3cc(Cl)c(F)c(Cl)c3)(C(F)(F)F)C2)ccc1C(=O)N(C)c1nc(C(C)(F)F)n(C)n1` (stereo not shown) [Compound 46, 4-(5-(3,5-dichloro-4-fluorophenyl)-5-(trifluoromethyl)-4,5-dihydroisoxazol-3-yl)-N-(5-(1,1-difluoroethyl)-1-methyl-1H-1,2,4-triazol-3-yl)-N,2-dimethylbenzamide]: the mortality at 300 ppm in assay [2] was not below 70%. `Cc1cc(C2=NOC(c3cc(Cl)c(F)c(Cl)c3)(C(F)(F)F)C2)ccc1C(=O)N(C)c1nc(C(F)(F)F)n(C)n1` (stereo not shown) [Compound 40, 4-(5-(3,5-dichloro-4-fluorophenyl)-5-(trifluoromethyl)-4,5-dihydroisoxazol-3-yl)-N,2-dimethyl-N-(1-methyl-5-(trifluoromethyl)-1H-1,2,4-triazol-3-yl)benzamide]: the mortality at 300 ppm in assay [2], in assay [3] and in assay [4] was not below 70% in each case. As for `Cc1cc(C2=NOC(c3cc(Cl)cc(Cl)c3)(C(F)(F)F)C2)ccc1C(=O)Nc1nc(C(F)(F)F)n(C)n1` (stereo not shown) [Compound 2, 4-(5-(3,5-dichlorophenyl)-5-(trifluoromethyl)-4,5-dihydroisoxazol-3-yl)-2-methyl-N-(1-methyl-5-(trifluoromethyl)-1H-1,2,4-triazol-3-yl)benzamide], the mortality at 300 ppm in assay [2], in assay [3] and in assay [4] was not below 70% in each case. For `Cc1cc(C2=NOC(c3cc(Cl)c(F)c(Cl)c3)(C(F)(F)F)C2)ccc1C(=O)Nc1nc(C(F)(F)F)n(C)n1` (stereo not shown) [Compound 1, 4-(5-(3,5-dichloro-4-fluorophenyl)-5-(trifluoromethyl)-4,5-dihydroisoxazol-3-yl)-2-methyl-N-(1-methyl-5-(trifluoromethyl)-1H-1,2,4-triazol-3-yl)benzamide], the mortality at 300 ppm in assay [2], in assay [3] and in assay [4] was not below 70% each time. Take `Cc1cc(C2=NOC(c3cc(Cl)cc(Cl)c3)(C(F)(F)F)C2)ccc1C(=O)N(CC(F)(F)F)c1nc(CCC(F)(F)F)n(CC(F)(F)F)n1` (stereo not shown) [Compound 83, 4-(5-(3,5-dichlorophenyl)-5-(trifluoromethyl)-4,5-dihydroisoxazol-3-yl)-2-methyl-N-(2,2,2-trifluoroethyl)-N-(1-(2,2,2-trifluoroethyl)-5-(3,3,3-trifluoropropyl)-1H-1,2,4-triazol-3-yl)benzamide]: in assay [1], the mortality at 300 ppm is not below 70%. On to `Cc1cc(C2=NOC(c3cc(Cl)c(F)c(Cl)c3)(C(F)(F)F)C2)ccc1C(=O)Nc1nc(C(C)(F)F)n(C)n1` (stereo not shown) [Compound 47, 4-(5-(3,5-dichloro-4-fluorophenyl)-5-(trifluoromethyl)-4,5-dihydroisoxazol-3-yl)-N-(5-(1,1-difluoroethyl)-1-methyl-1H-1,2,4-triazol-3-yl)-2-methylbenzamide], for which the mortality at 300 ppm in assay [2] was not below 70%.

With `Cc1cc(C2=NOC(c3cc(Cl)c(F)c(Cl)c3)(C(F)(F)F)C2)ccc1C(=O)N(CC(F)(F)F)c1nc(C(C)C)n(CC(F)(F)F)n1` (stereo not shown) [Compound 31, 4-(5-(3,5-dichloro-4-fluorophenyl)-5-(trifluoromethyl)-4,5-dihydroisoxazol-3-yl)-N-(5-isopropyl-1-(2,2,2-trifluoroethyl)-1H-1,2,4-triazol-3-yl)-2-methyl-N-(2,2,2-trifluoroethyl)benzamide], the mortality at 300 ppm in assay [1] was not below 70%.

Regarding `Cc1cc(C2=NOC(c3cc(Cl)c(F)c(Cl)c3)(C(F)(F)F)C2)ccc1C(=O)N(CC(F)(F)F)c1nc(CCC(F)(F)F)n(CC(F)(F)F)n1` (stereo not shown) [Compound 111, 4-(5-(3,5-dichloro-4-fluorophenyl)-5-(trifluoromethyl)-4,5-dihydroisoxazol-3-yl)-2-methyl-N-(2,2,2-trifluoroethyl)-N-(1-(2,2,2-trifluoroethyl)-5-(3,3,3-trifluoropropyl)-1H-1,2,4-triazol-3-yl)benzamide], in assay [1], the mortality at 300 ppm was not below 70%.
